Test results as given in patent US7511146B2, “2-substituted benzimidazole piperidines analogs as selective melanin concentrating hormone receptor antagonists for the treatment of obesity and related disorders” (Schering Corporation, priority 2003, dated 2009).
Where two headings read alike, the source gives them in different places.

Target: T1, MCH receptor (Homo sapiens, UniProt Q99705)
T1 construct: expressed in transfected cells; host or cells: CHO cells
Assay: MCH Receptor Binding Assay ([125I]-MCH, SPA, membranes from CHO cells expressing the MCH receptor)
Conditions: [125I]-MCH displacement, CHO cell membranes
Procedure: MCH Receptor Binding Assay:
Membranes from CHO cells expressing the MCH receptor were prepared by lysing cells with 5 mM HEPES for 15 min at 4C. Cell lysates were centrifuged ([…], 15 min) and the pellet was resuspended in 5 mM HEPES. For each 96-well plate (Microlite, Dynex Technologies), 1 mg of cell membranes were incubated with 10 mg of wheat germ agglutinin SPA beads (Amersham) for 5 min at 4 C in a volume of 10 ml of binding buffer (25 mM HEPES, 10 mM MGCl2, 10 mM NaCl, 5 mM MnCl2, 0.1% BSA). The membrane/bead mixture was centrifuged (1500×g, 3.5 min), the supernatant was aspirated, and the pellet was resuspended in 10 ml binding buffer. The centrifugation, aspiration and resuspension were then repeated. The membrane/bead mixture (100 μl) was then added to 96-well plates containing 50 μl of 500 pM [^125I]-MCH (NEN) and […] of the appropriate concentration of compound (4× the desired final concentration). Nonspecific binding was determined by including 1 μM MCH in the binding reaction. The binding reaction was incubated at room temperature for 2 h. Plates were then analyzed in a TOPCOUNT microplate scintillation counter (Packard). Data was analyzed and Ki values were determined using GraphPad Prism.

[1] = read-out: Class (Ki, MCH receptor binding)

T1 sequence (Q99705 whole entry): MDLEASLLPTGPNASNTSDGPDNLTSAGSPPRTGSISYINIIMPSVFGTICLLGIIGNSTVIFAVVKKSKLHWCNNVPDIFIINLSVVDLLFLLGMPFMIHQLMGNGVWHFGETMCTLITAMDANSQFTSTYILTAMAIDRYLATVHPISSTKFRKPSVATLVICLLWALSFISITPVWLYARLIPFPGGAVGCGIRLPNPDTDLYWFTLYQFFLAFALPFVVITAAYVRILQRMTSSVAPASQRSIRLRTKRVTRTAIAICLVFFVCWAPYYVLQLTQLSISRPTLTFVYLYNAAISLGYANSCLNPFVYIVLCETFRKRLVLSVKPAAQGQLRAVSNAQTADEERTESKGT

Structure (SMILES)	Ki [1] [nM]	Ki (read-out: Ki value) [nM]
CS(=O)(=O)N1CCC(COc2nc3cc(Cl)c(Cl)cc3[nH]2)(c2ccc(-c3cccc(C#N)c3)cc2)CC1 [Compound 56, 4′-[4-(5,6-Dichloro-1H-benzoimidazol-2-yloxymethyl)-1-methanesulfonyl-piperidin-4-yl]-biphenyl-3-carbonitrile]	> 100	–
N#Cc1cccc(-c2ccc(C(NCc3nc4cc(Cl)c(F)cc4[nH]3)C3CCN(CC4CC4)CC3)cc2)c1 (centres unmarked) [Compound 17A]	< 20	–
N#Cc1cccc(-c2ccc(C(OCc3nc4cc(F)c(Cl)cc4[nH]3)C3CCN(Cc4ccccc4)CC3)cc2)c1 (centres unmarked) [Compound 34B]	20 to 50	–
N#Cc1cccc(-c2ccc(C(CCc3nc4cc(Cl)c(Cl)cc4[nH]3)C3CCN(Cc4ccccc4)CC3)cc2)c1 (centres unmarked) [Compound 75A]	50 to 100	–
CC(C)(C)OC(=O)N1CCC(COc2nc3cc(Cl)c(Cl)cc3[nH]2)(c2ccc(-c3cccc(C#N)c3)cc2)CC1 [Compound 53, 4-(3′-cyano-biphenyl-4-yl)-4-(5,6-dichloro-1H-benzoimidazol-2-yloxymethyl)-piperidine-1-carboxylic acid tert-butyl ester]	> 100	–
CCNC(=O)N1CCC(COc2nc3cc(Cl)c(Cl)cc3[nH]2)(c2ccc(-c3cccc(C#N)c3)cc2)CC1 [Compound 58, 4-(3′-Cyano-biphenyl-4-yl)-4-(5,6-dichloro-1H-benzoimidazol-2-yloxymethyl)-piperidine-1-carboxylic acid ethylamide]	> 100	–
N#Cc1cccc(-c2ccc(C3(NCc4nc5cc(Cl)c(Cl)cc5[nH]4)CCN(C4CCCC4)CC3)cc2)c1 [Compound 67A, 4′-{1-Cyclopentyl-4-[(5,6-dichloro-1H-benzoimidazol-2-ylmethyl)-amino]-piperidin-4-yl}-biphenyl-3-carbonitrile]	> 100	–
N#Cc1cccc(-c2ccc(C3(COc4nc5cc(Cl)c(Cl)cc5[nH]4)CCNCC3)cc2)c1 [Compound 54, 4′-[4-(5,6-Dichloro-1H-benzoimidazol-2-yloxymethyl)-piperidin-4-yl]-biphenyl-3-carbonitrile]	50 to 100	–
CC(C)(C)OC(=O)N1CCC(OCc2nc3cc(F)c(F)cc3[nH]2)(c2ccc(-c3cccc(C#N)c3)cc2)CC1 [Compound 63, 4-(3′-Cyano-biphenyl-4-yl)-4-(5,6-difluoro-1H-benzoimidazol-2-ylmethoxy)-piperidine-1-carboxylic acid tert-butyl ester]	> 100	–
N#Cc1cccc(-c2ccc(C(CCc3nc4c(Cl)cc(Cl)cc4[nH]3)C3CCN(Cc4ccccc4)CC3)cc2)c1 (centres unmarked) [Compound 75C]	20 to 50	–
N#Cc1cccc(-c2ccc(C(NCc3nc4cc(Cl)c(F)cc4[nH]3)C3CCNCC3)cc2)c1 (centres unmarked) [Compound 16B]	20 to 50	–
N#Cc1cccc(-c2ccc(C(CNc3nc4cc(Cl)c(Cl)cc4[nH]3)C3CCN(Cc4ccccc4)CC3)cc2)c1 (centres unmarked) [Compound 28A]	< 20	3
CC(C)(C)OC(=O)N1CCC(C(NCc2nc3cc(Cl)c(Cl)cc3[nH]2)c2ccc(-c3cccc(C#N)c3)cc2)CC1 (centres unmarked) [Compound 15A]	50 to 100	–
CC(=O)N1CCC(C(OCc2nc3cc(Cl)c(Cl)cc3[nH]2)c2ccc(-c3cccc(C#N)c3)cc2)CC1 (centres unmarked) [Compound 44]	> 100	–
N#Cc1cccc(-c2ccc(C(OCc3nc4cc(F)c(Cl)cc4[nH]3)C3CCN(C4CCCC4)CC3)cc2)c1 (centres unmarked) [Compound 34C]	20 to 50	–
N#Cc1cccc(-c2ccc(C(CSc3nc4cc(F)c(Cl)cc4[nH]3)C3CCNCC3)cc2)c1 (centres unmarked) [Compound 48]	> 100	–
N#Cc1cccc(-c2ccc(C(NCc3nc4cc(Cl)c(Cl)cc4[nH]3)C3CCNCC3)cc2)c1 (centres unmarked) [Compound 16A]	< 20	–

Structure (SMILES)	Ki [1] [nM]	Ki (read-out: Ki value) [nM]
N#Cc1cccc(-c2ccc(C3(CCc4nc5cc(Cl)c(F)cc5[nH]4)CCN(CC4CC4)CC3)cc2)c1 [Compound 11C]	> 100	–
N#Cc1cccc(-c2ccc(C(CNc3nc4cc(F)c(F)cc4[nH]3)C3CCN(Cc4ccccc4)CC3)cc2)c1 (centres unmarked) [Compound 28B]	< 20	–
COC(=O)N1CCC(CNc2nc3cc(F)c(F)cc3[nH]2)(c2ccc(-c3cccc(C#N)c3)cc2)CC1 [Compound 8D]	> 100	–
N#Cc1cccc(-c2ccc(C3(COc4nc5cc(Cl)c(Cl)cc5[nH]4)CCN(CC4CC4)CC3)cc2)c1 [Compound 57, 4′-[1-Cyclopropylmethyl-4-(5,6-dichloro-1H-benzoimidazol-2-yloxymethyl)-piperidin-4-yl]-biphenyl-3-carbonitrile]	50 to 100	–
N#Cc1cccc(-c2ccc(C(CCc3nc4cc(Cl)c(F)cc4[nH]3)C3CCN(Cc4ccccc4)CC3)cc2)c1 (centres unmarked) [Compound 75B]	20 to 50	–
N#Cc1cccc(-c2ccc(C3(NCc4nc5ccccc5[nH]4)CCN(C4CCCC4)CC3)cc2)c1 [Compound 67B]	> 100	–
N#Cc1cccc(-c2ccc(C(OCc3nc4cc(F)c(Cl)cc4[nH]3)C3CCN(CCCCCO)CC3)cc2)c1 (centres unmarked) [Compound 34D]	> 100	–
N#Cc1cccc(-c2ccc(C3(CCc4nc5cc(F)c(F)cc5[nH]4)CCN(CC4CC4)CC3)cc2)c1 [Compound 11A]	> 100	–
N#Cc1cccc(-c2ccc(C3(CCc4nc5cc(Cl)c(F)cc5[nH]4)CCNCC3)cc2)c1 [Compound 11B]	> 100	–
CC(C)(C)OC(=O)N1CCC(C(NCc2nc3cc(F)c(Cl)cc3[nH]2)c2ccc(-c3cccc(C#N)c3)cc2)CC1 (centres unmarked) [Compound 15B]	20 to 50	–
CS(=O)(=O)N1CCC(C(OCc2nc3cc(Cl)c(Cl)cc3[nH]2)c2ccc(-c3cccc(C#N)c3)cc2)CC1 (centres unmarked) [Compound 39]	> 100	–
N#Cc1cccc(-c2ccc(C3(CNc4nc5cc(F)c(F)cc5[nH]4)CCNCC3)cc2)c1 [Compound 8A]	20 to 50	–
N#Cc1cccc(-c2ccc(C(OCc3nc4cc(F)c(Cl)cc4[nH]3)C3CCN(CC4CC4)CC3)cc2)c1 (centres unmarked) [Compound 34A]	20 to 50	–
N#Cc1cccc(-c2ccc(C3(CNc4nc5cc(F)c(F)cc5[nH]4)CCN(CC4CC4)CC3)cc2)c1 [Compound 8B]	20 to 50	–
N#Cc1cccc(-c2ccc(C(OCc3nc4cc(F)c(Cl)cc4[nH]3)C3CCNCC3)cc2)c1 (centres unmarked) [Compound 33]	20 to 50	–
N#Cc1cccc(-c2ccc(C3(CNc4nc5cc(F)c(F)cc5[nH]4)CCN(C4CCC4)CC3)cc2)c1 [Compound 8C]	20 to 50	–
N#Cc1cccc(-c2ccc(C(NCc3nc4cc(Cl)c(F)cc4[nH]3)C3CCN(C4CCCC4)CC3)cc2)c1 (centres unmarked) [Compound 17B]	20 to 50	–
